Experiment [1] concerns Trypsin. Briefly: Compound was tested for percent inhibition against trypsin at 100 uM.
For experiment [2], the target named is T1, Serine protease 1 (Homo sapiens, UniProt P07477). Briefly: Compound was tested for percent inhibition against trypsin at 100 uM.
For experiment [3], the target named is T1, Serine protease 1. Put plainly: Inhibitory concentration required against trypsin was determined.
Experiment [4] deals with T2, Prothrombin (Homo sapiens, UniProt P00734). Briefly: Inhibitory concentration required against thrombin was determined.
The target in experiment [5] is T2, Prothrombin. Briefly: Inhibition of thrombin.

T1 sequence (P07477 whole entry): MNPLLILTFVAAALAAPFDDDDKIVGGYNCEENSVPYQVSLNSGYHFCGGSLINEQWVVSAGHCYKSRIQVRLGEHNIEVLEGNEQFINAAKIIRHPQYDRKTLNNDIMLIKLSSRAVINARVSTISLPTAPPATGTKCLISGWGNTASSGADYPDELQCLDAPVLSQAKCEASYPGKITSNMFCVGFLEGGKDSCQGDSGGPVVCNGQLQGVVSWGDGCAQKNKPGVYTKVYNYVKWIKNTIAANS

For `N=C(N)NCCC[C@H](NC(=O)CN1C(=O)CN(CCCc2ccccc2)C(=O)[C@H]1Cc1ccccc1)C(=O)O`, the inhibition in experiment [1] and in experiment [2] was 20% in each case.
As for `N=C(N)N1CCCC(C[C@H](NC(=O)CN2C(=O)CN(CCCc3ccc([N+](=O)[O-])cc3)C(=O)[C@H]2Cc2ccccc2)C(=O)c2nccs2)C1` (some centres not stated), the half-inhibitory concentration (IC50) – broadly, the point on the concentration scale where inhibition reaches its midpoint – was 9100 nM in experiment [3] and 210 nM in experiment [4].
For `N=C(N)NCCC[C@H](NC(=O)CN1C(=O)CN(CCCc2ccccc2)C(=O)[C@H]1Cc1ccccc1)C(=O)c1nccs1`, the half-inhibitory concentration (IC50) in experiment [3] worked out at 96 nM; in experiment [4], 3400 nM.
`N=C(N)N1CCCC(C[C@H](NC(=O)CN2C(=O)CN(CCCc3ccc(Cl)cc3)C(=O)[C@H]2Cc2ccccc2)C(=O)c2nccs2)C1` (some centres not stated): the half-maximal inhibitory concentration (IC50) in experiment [3] was 4800 nM; in experiment [4], 110 nM.
Consider `N=C(N)N1CCC[C@@H](C[C@H](NC(=O)CN2C(=O)CN(CCCc3ccccc3)C(=O)[C@H]2Cc2ccccc2)C(=O)c2nccs2)C1`, for which the half-inhibitory concentration (IC50) in experiment [3] turned out to be 9100 nM; in experiment [4], 170 nM. The Ki (commonly the dissociation constant of the complex between target and ligand, obtained from inhibition or displacement) in experiment [5] amounted to 55 nM.
In the case of `N=C(N)N1CCCC(C[C@H](NC(=O)CN2C(=O)CN(CCCc3ccccc3)C(=O)[C@H]2Cc2ccccc2)C(=O)N2CCCC2)C1` (some centres not stated), the figures for the concentration for half-maximal inhibition (IC50) in experiment [3] and in experiment [4] were 8700 nM and 660 nM, respectively. The molecule further came in with an inhibitory constant (Ki) in experiment [5] of 130 nM.
The matching figures for `N=C(N)N1CCCC(C[C@H](NC(=O)CN2C(=O)CN(CCCc3ccccc3)C(=O)[C@H]2Cc2cccc(Cl)c2)C(=O)c2nccs2)C1` (some centres not stated): 4800 nM, 390 nM and 20 nM.
On to `N=C(N)N1CCCC(C[C@H](NC(=O)CN2C(=O)CN(CCCc3ccccc3)C(=O)[C@H]2Cc2ccccc2Cl)C(=O)c2nccs2)C1` (some centres not stated), for which the IC50 in experiment [3] was 9700 nM; in experiment [4] it was 18 nM. In experiment [5], this molecule registered an inhibition constant Ki of 1.2 nM.
Consider `N=C(N)N1CCCC(C[C@H](NC(=O)CN2C(=O)CN(CCCc3ccc(Cl)c(Cl)c3)C(=O)[C@H]2Cc2ccccc2)C(=O)c2nccs2)C1` (some centres not stated), for which the figures for the IC50 in experiment [3] and in experiment [4] were 7200 nM and 250 nM, respectively.
Take `N=C(N)N1CCCC(C[C@H](NC(=O)CN2C(=O)CN(CCCc3ccccc3)C(=O)[C@H]2Cc2ccccc2)C(=O)N2CCCCC2)C1` (some centres not stated): in experiment [2], the inhibition (in general, the relative decrease from the control value, in per cent) came out at 52%. The Ki in experiment [5] stood at 825 nM. The IC50 in experiment [4] came out at 6600 nM.
Regarding `N=C(N)N1CCCC(C[C@H](NC(=O)CN2C(=O)CN(CCCc3ccccc3)C(=O)[C@H]2C(c2ccccc2)c2ccccc2)C(=O)c2nccs2)C1` (some centres not stated), the values for the IC50 in experiment [3] and in experiment [4] were 8500 nM and 350 nM, respectively.
On to `N=C(N)N1CCCC(C[C@H](NC(=O)CN2C(=O)CN(CCCc3ccccc3)C(=O)[C@H]2Cc2ccccc2)C(=O)c2nc3ccccc3s2)C1` (some centres not stated), for which the 50% inhibitory concentration (IC50) in experiment [3] turned out to be 3700 nM; in experiment [4] it was 150 nM. Further, the affinity in experiment [5], expressed as Ki, was 80 nM.
For the molecule `C[C@@H]1C(=O)N(CCCc2ccccc2)CC(=O)N1CC(=O)N[C@@H](C[C@@H]1CCCN(C(=N)N)C1)C(=O)c1nccs1`, the IC50 worked out at 340 nM in experiment [3] and 880 nM in experiment [4].
Consider `N=C(N)N1CCCC(C[C@H](NC(=O)CN2C(=O)CN(Cc3ccccc3)C(=O)[C@H]2Cc2ccccc2)C(=O)c2nccs2)C1` (some centres not stated), for which the IC50 was found to be 21000 nM in experiment [3] and 1230 nM in experiment [4].
With `CNC(=O)[C@H](CC1CCCN(C(=N)N)C1)NC(=O)CN1C(=O)CN(CCCc2ccccc2)C(=O)[C@H]1Cc1ccccc1` (some centres not stated), the half-maximal inhibitory concentration (IC50) in experiment [3] amounted to 2300 nM; in experiment [4], 440 nM. The same molecule had an inhibitory constant (Ki) in experiment [5] of 55 nM.
For the molecule `N=C(N)NCCC[C@H](NC(=O)CN1C(=O)CN(CCCc2ccccc2)C(=O)[C@H]1Cc1ccccc1)C(N)=O`, the inhibition is 35% in experiment [1] and 15% in experiment [2].
Regarding `N=C(N)N1CCCC(C[C@H](NC(=O)CN2C(=O)CN(CCCc3ccccc3)C(=O)[C@H]2Cc2ccc(Cl)cc2)C(=O)c2nccs2)C1` (some centres not stated), the 50% inhibitory concentration (IC50) came out at 17000 nM in experiment [3] and 280 nM in experiment [4].
On to `N=C(N)N1CCCC(C[C@H](NC(=O)CN2C(=O)CN(Cc3ccccc3)C(=O)[C@@H]2Cc2ccc3ccccc3c2)C(=O)c2nccs2)C1` (some centres not stated), for which the Ki in experiment [5] came out at 3.5 nM. For the same molecule, the half-maximal inhibitory concentration (IC50) in experiment [4] came to 170 nM.
On to `COc1ccc(CCCN2CC(=O)N(CC(=O)N[C@@H](CC3CCCN(C(=N)N)C3)C(=O)c3nccs3)[C@H](Cc3ccccc3)C2=O)cc1` (some centres not stated), for which the IC50 was found to be 14000 nM in experiment [3] and 160 nM in experiment [4].
As to `Cc1ccc(CCCN2CC(=O)N(CC(=O)N[C@@H](CC3CCCN(C(=N)N)C3)C(=O)c3nccs3)[C@H](Cc3ccccc3)C2=O)cc1` (some centres not stated), the results for the half-maximal inhibitory concentration (IC50) in experiment [3] and in experiment [4] were 4100 nM and 210 nM, respectively.
In the case of `N=C(N)N1CCCC(C[C@H](NC(=O)CN2C(=O)CN(CCCc3ccccc3)C(=O)[C@H]2Cc2ccc3ccccc3c2)C(=O)c2nccs2)C1` (some centres not stated), the IC50 in experiment [3] was 18200 nM; in experiment [4], 160 nM. In experiment [5], this molecule gave a Ki of 55 nM.
For the molecule `N=C(N)N1CCCC(C[C@H](NC(=O)CN2C(=O)CN(CCc3ccccc3)C(=O)[C@H]2Cc2ccccc2)C(=O)c2nccs2)C1` (some centres not stated), the concentration for half-maximal inhibition (IC50) in experiment [3] was 45000 nM; in experiment [4], 990 nM.
Consider `N=C(N)N1CCCC(C[C@H](NC(=O)CN2C(=O)CN(CCCc3ccc(O)cc3)C(=O)[C@H]2Cc2ccccc2)C(=O)c2nccs2)C1` (some centres not stated), for which the half-inhibitory concentration (IC50) in experiment [3] was determined as 25000 nM; in experiment [4], 240 nM.
Consider `CCCCN1CC(=O)N(CC(=O)N[C@@H](CC2CCCN(C(=N)N)C2)C(=O)c2nccs2)[C@H](Cc2ccccc2)C1=O` (some centres not stated), for which the IC50 in experiment [3] was 15000 nM; in experiment [4], 340 nM. Moreover, the inhibition constant (Ki) in experiment [5] came out at 32 nM.
In the case of `CC(C)c1ccc(CCCN2CC(=O)N(CC(=O)N[C@@H](CC3CCCN(C(=N)N)C3)C(=O)c3nccs3)[C@H](Cc3ccccc3)C2=O)cc1` (some centres not stated), the IC50 in experiment [3] came out at 7000 nM; in experiment [4], 370 nM.
For `N=C(N)N1CCCC(C[C@H](NC(=O)CN2C(=O)CN(CCCc3ccccc3)C(=O)[C@H]2Cc2ccc(Cl)c(Cl)c2)C(=O)c2nccs2)C1` (some centres not stated), the IC50 in experiment [3] is 7800 nM; in experiment [4], 80 nM. The molecule further showed a Ki in experiment [5] of 8 nM.

The values are drawn from ChEMBL document CHEMBL1132099, “The design of potent and selective inhibitors of thrombin utilizing a piperazinedione template: part 2” (Bioorg Med Chem Lett, 1999).
